Reference: US20230046078A1, “METHODS OF USING SUBSTITUTED FLAVONES FOR TREATING BONE DISORDERS” (EMORY UNIVERSITY, priority 2021, published 2023)
Entries after “also recorded” stand apart in the source; their conditions may differ.

Assays:
MC3T3-E1 cells [1] = assay: ELISA of OPG and RANK-L secreted into the medium of MC3T3 cells; type: cell-based, Murine
Text: FIG. 9, Panel A contains representative images of ALP staining in […] cells treated with BDNF or 7,8-DHF combined with or without K252a for 14 days (n=3 independent experiments) (Scale bar, 5 mm (upper panel), 200 μm (lower panel)). […] FIG. 9, Panel C contains Western blots for MC3T3 cells cultured in complete medium or osteogenic induction medium (OIM) with BDNF or 7,8 DHF combined with or without K252a for 4 days. […] FIG. 9, Panel D contains graphs of the relative protein levels of C/EBPP, p-C/EBPβ, AEP, RANK-L, OPG, Osterix, p-TrkB/TrkB and p-Akt/AKT in MC3T3 cells cultured in the complete medium or OIM with BDNF or 7,8-DHF combined with or without K252a for four days. Data are shown as mean±SEM of three independent experiments, one-way ANOVA. Data are shown in each graph from left to right as 1) Control, 2) OIM+DMSO, 3) OIM+BDNF, 4) OIM+7,8-DHF, 5) OIM+BDNF+K252a, and 6) OIM+7,8-DHF+K252a. FIG. 9, Panel E contains graphs of an AEP enzymatic activity assay. BDNF and 7,8-DHF inhibit AEP activities, and K252a abolish BDNF and 7,8-DHF's effects. Data are shown as mean±SEM of 3 independent experiments, one-way ANOVA. Data are shown in each graph from left to right as 1) Control, 2) OIM+DMSO, 3) OIM+BDNF, 4) OIM+7,8-DHF, 5) OIM+BDNF+K252a, and 6) OIM+7,8-DHF+K252a. FIG. 9, Panel F contains graphs of qPCR results showing that OPG mRNA expression increases in MC3T3 cells after 7,8-DHF treatment for four days. Data are shown as mean±SEM of three independent experiments, one-way ANOVA. Data are shown in each graph from left to right as 1) Control, 2) OIM+DMSO, 3) OIM+BDNF, 4) OIM+7,8-DHF, 5) OIM+BDNF+K252a, and 6) OIM+7,8-DHF+K252a. FIG. 9, Panel G contains graphs showing that 7,8-DHF increases OPG and decreases the RANK-L/OPG ratio. Levels of OPG and RANK-L proteins secreted into the medium were measured by ELISA. Data are shown as mean±SEM of 3 independent experiments, one-way ANOVA. Data are shown in each graph from left to right as 1) Control, 2) OIM+DMSO, 3) OIM+BDNF, 4) OIM+7,8-DHF, 5) OIM+BDNF+K252a, and 6) OIM+7,8-DHF+K252a.

MC3T3-E1 cells [2] = type: cell-based, Murine
MC3T3-E1 cells [3] = type: cell-based, Murine; remark: listed apart in the source
Method: Total RNA was isolated by TRIzol (Life Technologies, Carlsbad, Calif.). Reverse transcription was performed with SuperScript III reverse transcriptase (Life Technologies). Gene-specific primers and probes were designed and bought from Taqman (Life Technologies). All real-time PCR reactions were performed using the ABI 7500-Fast Real-Time PCR System and the Taqman Universal Master Mix Kit (Life Technologies). The relative quantification of gene expression was calculated using the ΔΔCt method. Predesigned real-time PCR primers from Applied Biosystems (Waltham, Mass.) were used for the analysis of Opg (Tnfrsf11b; Mm0043545_m1), RANK-L (Tnfsf11; Mm00441908_m1), AEP (Lgmn; Mm01325350_m1), GAPDH (Gapdh; Mm99999915_g1).

AEP = AEP activity assay on MC3T3-E1 cell lysates; type: cell-based, Murine
Method: Cell lysates (10 μg) were incubated in 200 μl assay buffer (20 mM citric acid, 60 mM Na2HPO4, 1 mM EDTA, 0.1% CHAPS, and 1 mM DTT, pH 6.0) containing 20 μM δ-secretase substrate Z-Ala-Ala-Asn-AMC (Bachem, Bubendorf, Switzerland). AMC released by substrate cleavage was quantified by measuring at 460 nm in a fluorescence plate reader at 37° C. for 2 h in kinetic mode.

[4] = tested on: ovariectomized (OVX) WT and BDNF+/− mice; type: in vivo
[5] = tested on: ovariectomized (OVX) WT and BDNF+/− mice; type: in vivo; remark: listed apart in the source
[6] = tested on: ovariectomized (OVX) WT mice; assay: H&E, TRAP staining and histomorphometry of distal femur in OVX WT mice, R13 versus anti-RANK-L antibody; type: in vivo; conditions: WT mice after OVX
Method: (§1) Female C57BL6/J wild-type mice and BDNF+/−mice were obtained from Jackson Laboratory (MMRRC stock #000664 and 002267), then held and bred. The AEP knockout mice were generated on a mixed C57BL/6 and 129/Ola background. All in vivo experiments were carried out in female mice. All mice were kept under specific pathogen-free conditions in an environmentally controlled clean room and housed at 22° C. on a 12-h/12-h light/dark cycle. Food and water were provided ad lib. WT, BDNF+/−mice, AEP WT and AEP knockout mice were bilaterally ovariectomized or sham operated at 12 weeks of age. One week after ovariectomy, the WT and BDNF+/−mice received vehicle or R13 dissolved in 5% DMSO/0.5% methylcellulose at dose of 21.8 mg/kg/d, six days per week, for 8 weeks by gavage. In another group, 4 weeks after ovariectomy, WT mice were treated with IgG or anti-RANK-L monoclonal antibody (10 mg/kg, twice per week) by single subcutaneous injection for 4 weeks.
(§2) The measurements, indices and units for histomorphometric analysis were recommended by the Nomenclature Committee of the American Society of Bone and Mineral Research. Mice were injected with calcein (25 μg/g) subcutaneously at day 10 and day 3 before sacrifice. Bone histomorphometric analysis was performed at the University of Alabama at Birmingham Center for Metabolic Bone Disease-Histomorphometry and Molecular Analysis Core Laboratory. The Goldner's trichrome-stained plastic-embedded sections of calcein-double labeled femora of the mice were analyzed by an operator blinded as to the nature of the samples.
Representative data of double labeling of the trabecular bone in WT mice with OVX after R13 or anti-RANK-L antibody treatment are provided in FIG. 14, Panel C.

[7] = tested on: ovariectomized (OVX) WT mice; assay: Serum markers in OVX WT mice, R13 versus anti-RANK-L antibody; type: in vivo
Method: as §1
Serum Osteocalcin (Novus Biologicals, Littleton, Colo., Cat. NBP2-68151), CTX (Immunodiagnostic systems, East Boldon, UK, Cat. AC-06F1), RANK-L and OPG (Abcam, Cat. ab269553 and ab203365) were measured by specific Elisa assays.
Given that R13 protects the bone by increase OPG, the RANK-L antibody was used as a comparator drug. Four weeks after ovariectomy, WT mice were treated with IgG or anti-RANK-L monoclonal antibody consecutively for 4 weeks.

WT mice = conditions: mouse, in vivo
[8] = tested on: ovariectomized (OVX) WT and BDNF+/− mice; assay: H&E, TRAP staining and quantitative bone histomorphometry of distal femur in OVX WT and BDNF+/− mice treated with R13; type: in vivo
Method: as §1, §2
To further explore the roles of BDNF signaling in bone resorption and formation after OVX, hematoxylin and eosin (H&E) staining was conducted to analyze bone morphology and white edipocytes in both WT and BDNF+/−mice after OVX surgery. […] These observations were also validated by the single and double-labeled surface and inter-label thickness analysis (FIG. 7). […] Treatments with R13 inhibited N.Oc/BS in both WT and BDNF+/−mice after OVX.

[9] = OVX WT and BDNF+/− mice upon R13 treatment
[10] = OVX mice, R13 21.8 mg/kg orally, eight weeks, vs vehicle control
[11] = […], R13 21.8 mg/kg orally, eight weeks, compared to OVX group
[12] = among the groups regardless of the treatment

COC(=O)[C@@]1(O)C[C@H]2O[C@]1(C)n1c3ccccc3c3c4c(c5c6ccccc6n2c5c31)C(=O)NC4 [K252a]
RANK-L/OPG ratio in BDNF and 7,8-DHF groups under K252a (MC3T3-E1 cells [1]; K252a 100 nM pretreatment): highly augmented
effects triggered by BDNF or 7,8-DHF (Western blot) under K252a (MC3T3-E1 cells [2]; K252a 100 nM pretreatment): potently blunted
BDNF/7,8-DHF-elevated RANK-L mRNAs under K252a (MC3T3-E1 cells [3]; K252a 100 nM pretreatment): not affected
BDNF/7,8-DHF-promoted OPG mRNA levels under K252a (MC3T3-E1 cells [3]; K252a 100 nM pretreatment): abolished
BDNF and 7,8-DHF's effects on AEP activities under K252a (AEP; K252a 100 nM pretreatment): abolish

CNC(=O)Oc1ccc2c(=O)cc(-c3ccccc3)oc2c1OC(=O)NC [R13, 4-oxo-2-phenyl-4H-chromene-7,8-diyl bis(methylcarbamate)]
RANK-L/OPG ratio (serum) [4, 9]: significant reduction
serum OPG [4, 9]: substantially increased
serum CTX levels ([4]; R13-treated OVX mice compared to sham group): higher
serum osteocalcin ([4]; R13-treated OVX mice compared with vehicle-treated sham group): increased
serum BDNF levels ([4]; among the groups): remained equivalent
trabecular spacing (Tb.Sp) ([5]; OVX mice, both types, R13 21.8 mg/kg orally, eight weeks, vs OVX group): decreased
trabecular number (Tb.N) [5, 10]: higher
trabecular thickness (Tb.Th) [5, 10]: higher
connectivity density (Conn.D) [5, 11]: higher
structure model index (SMI) [5, 11]: lower
trabecular bone volume fraction (BV/TV) ([5]; […], R13 21.8 mg/kg orally, six days per week for eight weeks, compared to OVX group): higher
bone density ([5]; after OVX, overall conclusion): strongly increase
relative cortical bone area to tissue area (Ct.Ar/Tt.Ar) ([5]; among the groups, R13 21.8 mg/kg orally): remained unchanged
average cortical thickness (Ct.Th) ([5]; mouse, in vivo, po, 21.8 mg/kg): escalated
cortical bone cortical area (Ct.Ar) ([5]; mouse, in vivo, po, 21.8 mg/kg): escalated
OVX-induced osteoclast cells (TRAP staining) [6]: diminished
trabecular bone marrow density (H&E staining) [6]: increased
white adipocyte contents in the bone (H&E staining) [6]: decreased
BFR/BS ([6]; distal femur trabecular bone): significantly increased
N.Oc/BS ([6]; distal femur trabecular bone): decreased
serum OPG [7]: robustly elevated
serum RANK-L [7]: without altering
serum RANK-L/OPG ratio [7]: significant reduction
BV/TV (WT mice): elevated
Conn.D. (WT mice): no significant difference
Ct.Ar (WT mice): no significant difference
Ct.Th (WT mice): no significant difference
SMI (WT mice): no significant difference
Tb.N (WT mice): no significant difference
Tb.Sp (WT mice): no significant difference
Tb.Th (WT mice): no significant difference
serum BDNF (WT mice): no significant difference
serum CTX (WT mice): no significant difference
serum OPG level (WT mice): significantly increased
serum RANK-L (WT mice): without affecting; also recorded: no significant difference
serum RANK-L/OPG ratio (WT mice): no significant difference
serum osteocalcin (WT mice): no significant difference
OVX-induced bone loss ([8]; R13 treatment): attenuated; also recorded: greatly blocks
OVX-induced osteoclast cells (TRAP staining) ([8]; WT and BDNF+/− mice): diminished
N.Oc/BS ([8]; WT and BDNF+/− mice after OVX): inhibited
adipocyte content in the bone (H&E staining) ([8]; after OVX, WT and BDNF+/− mice): decreased
trabecular bone tissue (H&E staining) ([8]; after OVX, WT and BDNF+/− mice): increased
bone formation rate (BFR) ([8]; after OVX, vehicle vs R13): vehicle-treated mice exhibited lower MAR and BFR as compared to R13-treated mice
mineral apposition rate (MAR) ([8]; after OVX, vehicle vs R13): vehicle-treated mice exhibited lower MAR and BFR as compared to R13-treated mice
MS/BS ratio [8, 12]: remained comparable
percentage of surfaces covered by OCs (Oc.S/BS) [8, 12]: remained comparable
N.Ob/BS ([8]; vehicle and R13-treated mice): no significant differences
ObS/BS ([8]; vehicle and R13-treated mice): no significant differences

BDNF: Brain-derived neurotrophic factor, a neurotrophin; TrkB ligand
OPG protein secreted into the medium (MC3T3-E1 cells [1]; OIM, vs OIM alone): further augmented
RANK-L protein secreted into the medium (MC3T3-E1 cells [1]; OIM, vs OIM alone): further augmented
RANK-L/OPG ratio (ELISA) (MC3T3-E1 cells [1]; OIM, vs OIM alone): OIM alone were significantly higher than BDNF and 7,8-DHF
AEP expression (MC3T3-E1 cells [2]; OIM, 4 days): diminished
OPG protein (Western blot) (MC3T3-E1 cells [2]; OIM, 4 days): augmentation
RANK-L protein (Western blot) (MC3T3-E1 cells [2]; OIM, 4 days): augmentation
OPG mRNA levels (MC3T3-E1 cells [3]; OIM, four days): strong stimulatory effect
RANK-L mRNA (MC3T3-E1 cells [3]; OIM, four days): elevated
AEP protease activities (AEP; MC3T3 cells in OIM, substrate Z-Ala-Ala-Asn-AMC): greatly blocked; also recorded: inhibit
